# Measurements: patent publication US9789181B2, “PAN-DR binding polypeptides and uses thereof” (Epimmune Inc., priority 2009, dated 2017)
# Where no end group is shown, it is not given here.
# What was measured:
# purified HLA DRB1 *0701 = purified HLA DRB1 *0701 (Homo sapiens, UniProt P01903+P01911, A100R/A102G/A103Q/D57E/D86V/E43K/F76Y/K127E/L162R/M171V/P40G/Q125H/Q99D/R33Q/R42Y/R54Q/S133A/S66F/T210M/V115G/Y107V/Y59L/Y89S); experiment: IC50nM to purified HLA | DRB1 *0701
# Description: (§1) Table printed on a drawing sheet, FIG. 1
# Head of the field: IC50nM to purified HLA | DRB1 *0701
# (§2) First copying reader's note: The comma is the decimal sign and the point a thousands separator (e.g. 21.831); some values are printed bold or italic and some SEQ ID NOs underlined, with no legend on the sheet.
# Where the first naming reader finds the target: head: IC50nM to purified HLA | DRB1 *0701
# purified HLA DRB1 *0401 = purified HLA DRB1 *0401 (Homo sapiens, UniProt P01903+P01911, A100K/A169T/F76Y/I96L/K127E/L162R/M171V/N62H/P40V/Q125Y/R42H/S133A/S149N/S66Y/V115G/V209L/W38E); experiment: IC50nM to purified HLA | DRB1 *0401
# Description: as §1
# Head of the field: IC50nM to purified HLA | DRB1 *0401
# as §2
# Where the first naming reader finds the target: head: IC50nM to purified HLA | DRB1 *0401
# purified HLA DRB1 *1501 = purified HLA DRB1 *1501 (Homo sapiens, UniProt P01903+P01911); experiment: IC50nM to purified HLA | DRB1 *1501
# Description: as §1
# Head of the field: IC50nM to purified HLA | DRB1 *1501
# as §2
# Where the first naming reader finds the target: head: IC50nM to purified HLA | DRB1 *1501
# purified HLA DRB1 *0301 = purified HLA DRB1 *0301 (Homo sapiens, UniProt P01903+P01911, A100K/A102G/A103R/A169T/F55Y/I96L/K41T/L162R/M171V/P40S/Q125H/Q178H/Q39Y/R42S/S66N/T106N/T262R/W38E/Y61H); experiment: IC50nM to purified HLA | DRB1 *0301
# Description: as §1
# Head of the field: IC50nM to purified HLA | DRB1 *0301
# as §2
# Where the first naming reader finds the target: head: IC50nM to purified HLA | DRB1 *0301
# purified HLA DRB1 *1302 = purified HLA DRB1 *1302 (Homo sapiens, UniProt P01903+P01911, A100E/A169T/K41T/L162R/M171V/P40S/Q125H/Q178H/Q39Y/Q99D/R42S/S66N/T262R/V115G/W38E/Y61H); experiment: IC50nM to purified HLA | DRB1 *1302
# Description: as §1
# Head of the field: IC50nM to purified HLA | DRB1 *1302
# as §2
# Where the first naming reader finds the target: head: IC50nM to purified HLA | DRB1 *1302
# purified HLA DRB4 *0101 = purified HLA DRB4 *0101 (Homo sapiens, UniProt P01903+P13762, G164S); experiment: IC50nM to purified HLA | DRB4 *0101
# Description: as §1
# Head of the field: IC50nM to purified HLA | DRB4 *0101
# as §2
# Where the first naming reader finds the target: head: IC50nM to purified HLA | DRB4 *0101
# purified HLA DRB5 *0101 = purified HLA DRB5 *0101 (Homo sapiens, UniProt P01903+Q30154); experiment: IC50nM to purified HLA | DRB5 *0101
# Description: as §1
# Head of the field: IC50nM to purified HLA | DRB5 *0101
# as §2
# Where the first naming reader finds the target: head: IC50nM to purified HLA | DRB5 *0101
# purified HLA DRB1 *0901 = purified HLA DRB1 *0901 (Homo sapiens, UniProt P01903+P01911, A100R/A103E/D57H/D86V/F55Y/F60I/F76Y/I96F/K127E/L162R/M171V/P40D/Q125H/Q99R/R33Q/R42F/S133A/S66N/T210M/V115G/W38K/Y107V/Y59G/Y89S); experiment: IC50nM to purified HLA | DRB1 *0901
# Description: as §1
# Head of the field: IC50nM to purified HLA | DRB1 *0901
# as §2
# Where the first naming reader finds the target: head: IC50nM to purified HLA | DRB1 *0901
# purified HLA DRB1 *0404 = purified HLA DRB1 *0404 (Homo sapiens, UniProt P01903+P01911, A100R/A169T/F76Y/I96L/K127E/L162R/M171V/N62H/P40V/Q125Y/R42H/S133A/S149N/S66Y/V209L/W38E); experiment: IC50nM to purified HLA | DRB1 *0404
# Description: as §1
# Head of the field: IC50nM to purified HLA | DRB1 *0404
# as §2
# Where the first naming reader finds the target: head: IC50nM to purified HLA | DRB1 *0404
# purified HLA DRB1 *0101 = purified HLA DRB1 *0101 (Homo sapiens, UniProt P01903+P01911, A100R/D57E/F55L/F60I/F76Y/I96L/L162R/M171V/P40L/Q125E/R42F/V115G/Y59C); experiment: IC50nM to purified HLA | DRB1 *0101
# Description: as §1
# Head of the field: IC50nM to purified HLA | DRB1 *0101
# as §2
# Where the first naming reader finds the target: head: IC50nM to purified HLA | DRB1 *0101
# purified HLA DRB1 *0802 = purified HLA DRB1 *0802 (Homo sapiens, UniProt P01903+P01911, A100R/A103L/A169T/F76Y/H45Y/I96F/K41T/L162R/M171V/P40S/Q125H/Q178H/Q39Y/Q99D/R218S/R42G/S66Y/V115G/W38E); experiment: IC50nM to purified HLA | DRB1 *0802
# Description: as §1
# Head of the field: IC50nM to purified HLA | DRB1 *0802
# as §2
# Where the first naming reader finds the target: head: IC50nM to purified HLA | DRB1 *0802
# purified HLA DRB1 *0405 = purified HLA DRB1 *0405 (Homo sapiens, UniProt P01903+P01911, A100R/A169T/D86S/F76Y/I96L/K127E/L162R/M171V/N62H/P40V/Q125Y/R42H/S133A/S149N/S66Y/V115G/V209L/W38E); experiment: IC50nM to purified HLA | DRB1 *0405
# Description: as §1
# Head of the field: IC50nM to purified HLA | DRB1 *0405
# as §2
# Where the first naming reader finds the target: head: IC50nM to purified HLA | DRB1 *0405
# purified HLA DRB1 *1101 = purified HLA DRB1 *1101 (Homo sapiens, UniProt P01903+P01911, A100R/A169T/A87E/I96F/K41T/L162R/M171V/P40S/Q125H/Q178H/Q39Y/Q99D/R42S/S66Y/T262R/V115G/W38E); experiment: IC50nM to purified HLA | DRB1 *1101
# Description: as §1
# Head of the field: IC50nM to purified HLA | DRB1 *1101
# as §2
# Where the first naming reader finds the target: head: IC50nM to purified HLA | DRB1 *1101
# purified HLA DRB1 *0301, sequence (P01903 26-254 limits assumed, other chains not shown): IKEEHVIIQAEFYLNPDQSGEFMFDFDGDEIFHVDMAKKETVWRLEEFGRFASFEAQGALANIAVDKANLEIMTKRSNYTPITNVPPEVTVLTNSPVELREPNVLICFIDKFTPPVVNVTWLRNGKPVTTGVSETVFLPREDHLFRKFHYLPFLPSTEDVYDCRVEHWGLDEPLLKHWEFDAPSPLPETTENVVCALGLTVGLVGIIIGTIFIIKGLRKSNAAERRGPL
# purified HLA DRB4 *0101, sequence (P01903 26-254 limits assumed): as the sequence (P01903 26-254 limits assumed, other chains not shown) above
# purified HLA DRB4 *0101, sequence (P13762 whole entry G164S): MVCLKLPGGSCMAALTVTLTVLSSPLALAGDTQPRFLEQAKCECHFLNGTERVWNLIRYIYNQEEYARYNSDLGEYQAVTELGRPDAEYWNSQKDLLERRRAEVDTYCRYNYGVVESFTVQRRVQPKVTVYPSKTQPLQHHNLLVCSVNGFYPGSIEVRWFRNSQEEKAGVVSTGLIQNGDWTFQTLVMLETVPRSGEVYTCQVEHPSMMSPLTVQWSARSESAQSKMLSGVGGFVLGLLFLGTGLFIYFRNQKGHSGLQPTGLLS
# purified HLA DRB1 *1101, sequence (P01903 26-254 limits assumed, other chains not shown): as the sequence (P01903 26-254 limits assumed, other chains not shown) above
# purified HLA DRB1 *1302, sequence (P01903 26-254 limits assumed, other chains not shown): as above
sequence,measurement,setting,value
AAAFFVAAFTLHAAA [SEQ ID NO: 14],IC50,purified HLA DRB1 *0701,0.61 µM
same,IC50,purified HLA DRB1 *0401,0.002 µM
same,IC50,purified HLA DRB1 *1501,0.025 µM
same,IC50,purified HLA DRB1 *0301,0.371 µM
same,IC50,purified HLA DRB1 *1302,219 µM
same,IC50,purified HLA DRB4 *0101,0.129 µM
same,IC50,purified HLA DRB5 *0101,0.029 µM
same,IC50,purified HLA DRB1 *0901,0.048 µM
same,IC50,purified HLA DRB1 *0404,0.0011 µM
AAAHFVAAWTLKAAA [SEQ ID NO: 25],IC50,purified HLA DRB1 *0701,0.11 µM
same,IC50,purified HLA DRB1 *0401,0.0031 µM
same,IC50,purified HLA DRB1 *1501,0.02 µM
same,IC50,purified HLA DRB1 *0301,0.262 µM
same,IC50,purified HLA DRB1 *1302,1.53 µM
same,IC50,purified HLA DRB4 *0101,0.384 µM
same,IC50,purified HLA DRB5 *0101,0.011 µM
same,IC50,purified HLA DRB1 *0101,0.0047 µM
same,IC50,purified HLA DRB1 *0901,0.045 µM
same,IC50,purified HLA DRB1 *0404,0.0048 µM
AAAKFVAAWTLHAAA [SEQ ID NO: 6],IC50,purified HLA DRB1 *0802,0.0076 µM
same,IC50,purified HLA DRB1 *0701,0.035 µM
same,IC50,purified HLA DRB1 *0401,0.0034 µM
same,IC50,purified HLA DRB1 *1302,0.656 µM
same,IC50,purified HLA DRB4 *0101,0.209 µM
same,IC50,purified HLA DRB5 *0101,0.022 µM
same,IC50,purified HLA DRB1 *0101,0.0039 µM
same,IC50,purified HLA DRB1 *0901,0.024 µM
same,IC50,purified HLA DRB1 *0404,0.0024 µM
AAAFFVAANTLKADA [SEQ ID NO: 19],IC50,purified HLA DRB1 *0401,0.004 µM
same,IC50,purified HLA DRB1 *1501,0.103 µM
same,IC50,purified HLA DRB1 *0301,0.14 µM
same,IC50,purified HLA DRB1 *1302,0.187 µM
same,IC50,purified HLA DRB4 *0101,5.52 µM
same,IC50,purified HLA DRB1 *0405,0.0095 µM
same,IC50,purified HLA DRB5 *0101,0.0044 µM
same,IC50,purified HLA DRB1 *0101,0.0034 µM
same,IC50,purified HLA DRB1 *0404,0.0045 µM
same,IC50,purified HLA DRB1 *1101,0.046 µM
AAAWFVAAWTLHAAA [SEQ ID NO: 7],IC50,purified HLA DRB1 *0701,0.084 µM
same,IC50,purified HLA DRB1 *1501,0.036 µM
same,IC50,purified HLA DRB1 *0301,0.111 µM
same,IC50,purified HLA DRB1 *1302,4.24 µM
same,IC50,purified HLA DRB4 *0101,0.447 µM
same,IC50,purified HLA DRB1 *0101,0.0043 µM
same,IC50,purified HLA DRB1 *0901,0.033 µM
same,IC50,purified HLA DRB1 *0404,0.002 µM
same,IC50,purified HLA DRB1 *1101,0.032 µM
AAAFFVAAYTLKADA [SEQ ID NO: 17],IC50,purified HLA DRB1 *0802,0.0067 µM
same,IC50,purified HLA DRB1 *0701,0.045 µM
same,IC50,purified HLA DRB1 *0401,0.005 µM
same,IC50,purified HLA DRB1 *1501,0.025 µM
same,IC50,purified HLA DRB1 *1302,0.856 µM
same,IC50,purified HLA DRB1 *0405,0.033 µM
same,IC50,purified HLA DRB5 *0101,0.0073 µM
same,IC50,purified HLA DRB1 *0101,0.0038 µM
same,IC50,purified HLA DRB1 *0404,0.006 µM
same,IC50,purified HLA DRB1 *1101,0.055 µM
AAAWFVAAYTLHAAA [SEQ ID NO: 8],IC50,purified HLA DRB1 *0701,0.091 µM
same,IC50,purified HLA DRB1 *0401,0.0038 µM
same,IC50,purified HLA DRB1 *1501,0.0062 µM
same,IC50,purified HLA DRB1 *0301,0.16 µM
same,IC50,purified HLA DRB1 *1302,3.11 µM
same,IC50,purified HLA DRB4 *0101,0.46 µM
same,IC50,purified HLA DRB1 *0405,0.024 µM
same,IC50,purified HLA DRB5 *0101,0.025 µM
same,IC50,purified HLA DRB1 *0101,0.0039 µM
same,IC50,purified HLA DRB1 *0901,0.019 µM
same,IC50,purified HLA DRB1 *0404,0.0032 µM
AAAFFVAANTLHAAA [SEQ ID NO: 15],IC50,purified HLA DRB1 *0401,0.0038 µM
same,IC50,purified HLA DRB1 *1501,0.07 µM
same,IC50,purified HLA DRB1 *1302,0.064 µM
same,IC50,purified HLA DRB4 *0101,0.876 µM
same,IC50,purified HLA DRB1 *0405,0.027 µM
same,IC50,purified HLA DRB1 *0101,0.0065 µM
same,IC50,purified HLA DRB1 *0901,0.031 µM
same,IC50,purified HLA DRB1 *0404,0.0041 µM
same,IC50,purified HLA DRB1 *1101,0.042 µM
